Assay results reported in PubChem BioAssay (NCI).
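Interpolation was linear, between the two tested concentrations surrounding the appropriate level; five concentrations were tested over 48 hours in 96-well plates. At the GI50, growth is halved. TGI: concentration producing complete growth inhibition.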

Key:
Experiment in all cases: inhibition of tumour cell growth, NCI panel, 48 h
RPMI-8226 leukemia = tested on: RPMI-8226 leukemia
NCI-H522 lung = tested on: NCI-H522 lung
OVCAR-3 ovarian = tested on: OVCAR-3 ovarian
786-0 renal = tested on: 786-0 renal
CCRF-CEM leukemia = tested on: CCRF-CEM leukemia
SK-OV-3 ovarian = tested on: SK-OV-3 ovarian
NCI-H460 lung = tested on: NCI-H460 lung
CAKI-1 renal = tested on: CAKI-1 renal
OVCAR-5 ovarian = tested on: OVCAR-5 ovarian
SR leukemia = tested on: SR leukemia

**Q.** For `COc1cc(-c2cn(-c3ccc(Cl)cc3)c(=O)n2-c2ccccc2)cc(OC)c1OC`, which GI50 (RPMI-8226 leukemia) is on record?
**A.** > 35.4 µM

**Q.** What about the TGI (RPMI-8226 leukemia) of the same compound?
**A.** > 100 µM

**Q.** And the GI50 (NCI-H522 lung)?
**A.** 45.1 µM

**Q.** What about the TGI (NCI-H522 lung) of the same compound?
**A.** > 100 µM

**Q.** And the GI50 (OVCAR-3 ovarian)?
**A.** > 100 µM

**Q.** What about the TGI (OVCAR-3 ovarian) of the same compound?
**A.** > 100 µM

**Q.** And the GI50 (786-0 renal)?
**A.** > 83.1 µM

**Q.** And the TGI (786-0 renal)?
**A.** > 100 µM

**Q.** What about the GI50 (CCRF-CEM leukemia) of the same compound?
**A.** > 100 µM

**Q.** And the TGI (CCRF-CEM leukemia)?
**A.** > 100 µM

**Q.** And the GI50 (SK-OV-3 ovarian)?
**A.** 74.9 µM

**Q.** And the TGI (SK-OV-3 ovarian)?
**A.** > 100 µM

**Q.** What about the GI50 (NCI-H460 lung) of the same compound?
**A.** > 80.9 µM

**Q.** And the TGI (NCI-H460 lung)?
**A.** > 100 µM

**Q.** And the GI50 (CAKI-1 renal)?
**A.** > 100 µM

**Q.** And the TGI (CAKI-1 renal)?
**A.** > 100 µM

**Q.** What about the GI50 (OVCAR-5 ovarian) of the same compound?
**A.** > 100 µM

**Q.** What about the TGI (OVCAR-5 ovarian) of the same compound?
**A.** > 100 µM

**Q.** And the TGI (SR leukemia)?
**A.** > 100 µM

**Q.** With `CC(=O)/C(=C\n1c(=S)[nH]c2ccc([N+](=O)[O-])cc21)C(=O)Nc1ccccc1C` as the compound, how does the TGI (RPMI-8226 leukemia) read?
**A.** > 100 µM

**Q.** What about the TGI (NCI-H522 lung) of the same compound?
**A.** > 100 µM

**Q.** And the TGI (OVCAR-3 ovarian)?
**A.** > 100 µM

**Q.** What about the TGI (786-0 renal) of the same compound?
**A.** > 100 µM

**Q.** And the TGI (CCRF-CEM leukemia)?
**A.** > 100 µM

**Q.** And the TGI (SK-OV-3 ovarian)?
**A.** > 100 µM

**Q.** And the TGI (NCI-H460 lung)?
**A.** > 100 µM

**Q.** And the TGI (CAKI-1 renal)?
**A.** > 100 µM

**Q.** And the TGI (OVCAR-5 ovarian)?
**A.** > 100 µM

**Q.** What about the TGI (SR leukemia) of the same compound?
**A.** > 100 µM

**Q.** What does the source list for `Cn1cc(-c2ccc3c(c2)ncn3-c2ccc(CC(=O)Nc3cc(C(C)(C)C)on3)cc2)cn1`?
**A.** GI50 (RPMI-8226 leukemia): 3.35 µM; TGI (RPMI-8226 leukemia): > 100 µM; GI50 (NCI-H522 lung): 2.27 µM; TGI (NCI-H522 lung): 13.9 µM; GI50 (OVCAR-3 ovarian): 2.06 µM; TGI (OVCAR-3 ovarian): > 39.8 µM; GI50 (786-0 renal): 1.48 µM; TGI (786-0 renal): > 84.6 µM; GI50 (CCRF-CEM leukemia): 3.23 µM; TGI (CCRF-CEM leukemia): > 100 µM; GI50 (SK-OV-3 ovarian): 1.01 µM; TGI (SK-OV-3 ovarian): 4.33 µM; GI50 (NCI-H460 lung): 2.45 µM; TGI (NCI-H460 lung): > 37.7 µM; GI50 (CAKI-1 renal): 0.782 µM; TGI (CAKI-1 renal): 2.43 µM; GI50 (OVCAR-5 ovarian): 1.35 µM; TGI (OVCAR-5 ovarian): > 27.2 µM; GI50 (SR leukemia): 1.69 µM; TGI (SR leukemia): 8.49 µM

**Q.** `Cn1c(=O)c2c(nc3n2C(CCl)CO3)n(C)c1=O` (centres undefined) was tested. Which TGI (RPMI-8226 leukemia) did it give?
**A.** > 100 µM

**Q.** What about the TGI (NCI-H522 lung) of the same compound?
**A.** > 100 µM

**Q.** What about the TGI (OVCAR-3 ovarian) of the same compound?
**A.** > 100 µM

**Q.** What about the TGI (786-0 renal) of the same compound?
**A.** > 100 µM

**Q.** What about the TGI (CCRF-CEM leukemia) of the same compound?
**A.** > 100 µM

**Q.** What about the TGI (SK-OV-3 ovarian) of the same compound?
**A.** > 100 µM

**Q.** And the TGI (NCI-H460 lung)?
**A.** > 100 µM

**Q.** And the TGI (CAKI-1 renal)?
**A.** > 100 µM

**Q.** And the TGI (OVCAR-5 ovarian)?
**A.** > 100 µM

**Q.** And the TGI (SR leukemia)?
**A.** > 100 µM

**Q.** What does the source list for `CNS(=O)(=O)NN(C)S(=O)(=O)c1ccc(C)cc1`?
**A.** TGI (RPMI-8226 leukemia): > 100 µM; TGI (NCI-H522 lung): > 100 µM; TGI (OVCAR-3 ovarian): > 100 µM; TGI (786-0 renal): > 100 µM; TGI (CCRF-CEM leukemia): > 100 µM; TGI (SK-OV-3 ovarian): > 100 µM; TGI (NCI-H460 lung): > 100 µM; TGI (CAKI-1 renal): > 100 µM; TGI (OVCAR-5 ovarian): > 100 µM; TGI (SR leukemia): > 100 µM

**Q.** For `COC(=O)C1(C)CCc2c(ccc3ccccc23)C1=O` (centres undefined), which TGI (RPMI-8226 leukemia) is on record?
**A.** 60.6 µM

**Q.** And the TGI (NCI-H522 lung)?
**A.** 57.3 µM

**Q.** What about the TGI (OVCAR-3 ovarian) of the same compound?
**A.** > 100 µM

**Q.** What about the TGI (786-0 renal) of the same compound?
**A.** > 100 µM

**Q.** And the TGI (CCRF-CEM leukemia)?
**A.** > 100 µM

**Q.** What about the TGI (SK-OV-3 ovarian) of the same compound?
**A.** > 100 µM

**Q.** What about the TGI (NCI-H460 lung) of the same compound?
**A.** > 100 µM

**Q.** And the TGI (CAKI-1 renal)?
**A.** 41.6 µM

**Q.** What about the TGI (OVCAR-5 ovarian) of the same compound?
**A.** > 100 µM

**Q.** What about the TGI (SR leukemia) of the same compound?
**A.** > 100 µM

**Q.** For `COc1ccc(N=C/C=C/C(=C/COC(C)=O)OC(C)=O)cc1`, which TGI (RPMI-8226 leukemia) is on record?
**A.** > 100 µM

**Q.** What about the TGI (NCI-H522 lung) of the same compound?
**A.** 30.4 µM

**Q.** And the TGI (OVCAR-3 ovarian)?
**A.** > 100 µM

**Q.** What about the TGI (786-0 renal) of the same compound?
**A.** 90 µM

**Q.** And the TGI (CCRF-CEM leukemia)?
**A.** > 100 µM

**Q.** And the TGI (SK-OV-3 ovarian)?
**A.** > 100 µM

**Q.** What about the TGI (NCI-H460 lung) of the same compound?
**A.** 98.6 µM

**Q.** What about the TGI (CAKI-1 renal) of the same compound?
**A.** 63.8 µM

**Q.** What about the TGI (OVCAR-5 ovarian) of the same compound?
**A.** > 100 µM

**Q.** And the TGI (SR leukemia)?
**A.** > 100 µM

**Q.** How did the GI50 (RPMI-8226 leukemia) turn out when `C#CCSc1nnnn1-c1ccc(Br)c(C)c1` was run?
**A.** 22.5 µM

**Q.** What about the TGI (RPMI-8226 leukemia) of the same compound?
**A.** 74 µM

**Q.** What about the GI50 (NCI-H522 lung) of the same compound?
**A.** 19.1 µM

**Q.** And the TGI (NCI-H522 lung)?
**A.** 79.4 µM

**Q.** What about the GI50 (OVCAR-3 ovarian) of the same compound?
**A.** 23.2 µM

**Q.** What about the TGI (OVCAR-3 ovarian) of the same compound?
**A.** 95.8 µM

**Q.** What about the GI50 (786-0 renal) of the same compound?
**A.** 54.9 µM

**Q.** And the TGI (786-0 renal)?
**A.** > 100 µM

**Q.** What about the GI50 (CCRF-CEM leukemia) of the same compound?
**A.** 29.5 µM

**Q.** And the TGI (CCRF-CEM leukemia)?
**A.** > 100 µM

**Q.** And the GI50 (SK-OV-3 ovarian)?
**A.** 30 µM

**Q.** What about the TGI (SK-OV-3 ovarian) of the same compound?
**A.** > 100 µM

**Q.** What about the GI50 (NCI-H460 lung) of the same compound?
**A.** 31.5 µM

**Q.** And the TGI (NCI-H460 lung)?
**A.** > 100 µM

**Q.** What about the GI50 (CAKI-1 renal) of the same compound?
**A.** 2.82 µM

**Q.** And the TGI (CAKI-1 renal)?
**A.** 17.6 µM

**Q.** What about the GI50 (OVCAR-5 ovarian) of the same compound?
**A.** 69.4 µM

**Q.** And the TGI (OVCAR-5 ovarian)?
**A.** > 100 µM

**Q.** What about the GI50 (SR leukemia) of the same compound?
**A.** 19.8 µM

**Q.** What about the TGI (SR leukemia) of the same compound?
**A.** > 100 µM

**Q.** Which GI50 (RPMI-8226 leukemia) does the source give for `CC1(C)CCC(CN2CCN(c3ccc(C(=O)NS(=O)(=O)c4ccc(NCC5CCOCC5)c([N+](=O)[O-])c4)c(Oc4cnc5[nH]ccc5c4)c3)CC2)=C(c2ccc(Cl)cc2)C1` here?
**A.** 1.78 µM

**Q.** And the TGI (RPMI-8226 leukemia)?
**A.** 5.54 µM

**Q.** And the GI50 (NCI-H522 lung)?
**A.** 2.46 µM

**Q.** What about the TGI (NCI-H522 lung) of the same compound?
**A.** 7.23 µM

**Q.** And the GI50 (OVCAR-3 ovarian)?
**A.** 2.31 µM

**Q.** What about the TGI (OVCAR-3 ovarian) of the same compound?
**A.** 5.44 µM

**Q.** What about the GI50 (786-0 renal) of the same compound?
**A.** 3.54 µM

**Q.** What about the TGI (786-0 renal) of the same compound?
**A.** 12.5 µM

**Q.** What about the GI50 (CCRF-CEM leukemia) of the same compound?
**A.** 2.32 µM

**Q.** And the TGI (CCRF-CEM leukemia)?
**A.** 7.29 µM

**Q.** And the GI50 (SK-OV-3 ovarian)?
**A.** 3.16 µM

**Q.** What about the TGI (SK-OV-3 ovarian) of the same compound?
**A.** 10.9 µM

**Q.** And the GI50 (NCI-H460 lung)?
**A.** 2.64 µM

**Q.** And the TGI (NCI-H460 lung)?
**A.** 8.86 µM

**Q.** And the GI50 (CAKI-1 renal)?
**A.** 2.91 µM

**Q.** And the TGI (CAKI-1 renal)?
**A.** 10.7 µM

**Q.** What about the GI50 (OVCAR-5 ovarian) of the same compound?
**A.** 3.19 µM

**Q.** What about the TGI (OVCAR-5 ovarian) of the same compound?
**A.** 11.6 µM

**Q.** And the GI50 (SR leukemia)?
**A.** 3.21 µM

**Q.** What about the TGI (SR leukemia) of the same compound?
**A.** 13 µM
